Source: publication PMC3517300 (Journal of neurochemistry, 2012)

Legend:
[1] = target: human DAT (LLC-PK-hDAT cells) (Homo sapiens, UniProt Q01959); assay: AMPH-induced [^3H]DA efflux in LLC-PK-hDAT cells; assay type: cell-based
[2] = target: human dopamine transporter (DAT WT) (Homo sapiens, UniProt Q01959); assay: AMPH-induced DA efflux by RDEV, HEK 293-hDAT; assay type: cell-based; details: for effect on corrected efflux Vmax / effect on Km and Vmax of AMPH-induced DA efflux (RDEV): WT; for effect on corrected efflux Vmax: repletion with 200 µM sterol after 5.0 mM mβCD, or 25 µg/ml nystatin; for effect on Km and Vmax of AMPH-induced DA efflux (RDEV): 5.0 mM mβCD or 25 µg/ml nystatin, 10 µM AMPH
Chain of human dopamine transporter (DAT WT) (Q01959 whole entry): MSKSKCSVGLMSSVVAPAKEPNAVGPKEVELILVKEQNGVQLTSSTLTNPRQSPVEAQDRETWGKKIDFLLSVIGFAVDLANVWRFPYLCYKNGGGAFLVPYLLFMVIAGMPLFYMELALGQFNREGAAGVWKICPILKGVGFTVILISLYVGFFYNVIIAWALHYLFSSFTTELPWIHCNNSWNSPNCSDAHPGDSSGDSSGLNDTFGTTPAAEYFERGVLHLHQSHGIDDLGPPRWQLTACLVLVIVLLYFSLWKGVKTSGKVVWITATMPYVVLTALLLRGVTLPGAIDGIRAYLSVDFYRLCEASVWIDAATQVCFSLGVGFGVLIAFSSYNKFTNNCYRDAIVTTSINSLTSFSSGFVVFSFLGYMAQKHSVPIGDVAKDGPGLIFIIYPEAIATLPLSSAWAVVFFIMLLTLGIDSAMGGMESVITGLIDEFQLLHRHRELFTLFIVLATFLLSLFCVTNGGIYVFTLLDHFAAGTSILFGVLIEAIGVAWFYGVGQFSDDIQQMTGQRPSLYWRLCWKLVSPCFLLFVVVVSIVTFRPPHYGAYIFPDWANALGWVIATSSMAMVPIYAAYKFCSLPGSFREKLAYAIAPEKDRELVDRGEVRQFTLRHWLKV

[3] = system: hDAT surface expression in HEK-293 cells; assay: Surface biotinylation and immunoblot of DAT; assay type: cell-based, human; details: treatment with mβCD, nystatin, or repletion with cholesterol or desmosterol
[4] = system: DAT in lipid rafts of HEK-293 hDAT cells; assay: Sucrose density fractionation, DAT association with lipid rafts; assay type: cell-based, human; details: 1% Brij; depletion/chelation or repletion of mβCD depleted cells
[5] = system: cholesterol-depleted HuH7 hepatoma cells or hippocampal membranes; details: within 1 hr; ref Vainio et al. 2006; Singh et al. 2009; cited from earlier work
[6] = system: DAT; details: raft-enriched fractions vs whole cells; ref Foster et al. 2008; cited from earlier work
[7] = target: T1, W84L DAT mutant (Homo sapiens, UniProt Q01959, W84L); assay: DA uptake by RDEV, W84L hDAT-HEK 293 cells; assay type: cell-based; details: 2.5 mM mβCD or 25 µg/ml nystatin
T1 sequence (Q01959 1-620 W84L): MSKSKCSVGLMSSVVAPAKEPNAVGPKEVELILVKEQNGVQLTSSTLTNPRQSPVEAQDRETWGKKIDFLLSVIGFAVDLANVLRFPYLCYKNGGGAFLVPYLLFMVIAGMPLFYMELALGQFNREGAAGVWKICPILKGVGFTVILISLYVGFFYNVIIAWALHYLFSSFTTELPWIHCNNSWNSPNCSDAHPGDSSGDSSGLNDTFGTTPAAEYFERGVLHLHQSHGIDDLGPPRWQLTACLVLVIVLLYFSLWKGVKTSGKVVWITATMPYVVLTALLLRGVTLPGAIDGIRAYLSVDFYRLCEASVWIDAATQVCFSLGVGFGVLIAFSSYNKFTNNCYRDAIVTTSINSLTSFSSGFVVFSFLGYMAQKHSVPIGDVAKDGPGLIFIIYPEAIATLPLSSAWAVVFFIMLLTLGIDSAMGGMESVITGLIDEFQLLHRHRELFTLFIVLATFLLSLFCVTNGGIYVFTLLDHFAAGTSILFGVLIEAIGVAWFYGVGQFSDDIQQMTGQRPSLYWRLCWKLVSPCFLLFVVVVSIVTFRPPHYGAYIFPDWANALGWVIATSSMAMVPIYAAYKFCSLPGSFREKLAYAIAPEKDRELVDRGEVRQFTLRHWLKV

[8] = target: T1, W84L DAT mutant; assay: AMPH-induced DA efflux by RDEV, W84L hDAT-HEK 293 cells; assay type: cell-based; details: for effect on AMPH-induced DA efflux Km, Vmax (RDEV): 2.5 mM mβCD or 25 µg/ml nystatin, 10 µM AMPH
[9] = system: unesterified cholesterol in HEK 293-hDAT cells; assay: Cholesterol quantification; assay type: cell-based, human; details: for reduction of cholesterol content compared with untreated cells: 30 min, 37°C

Chain of human DAT (LLC-PK-hDAT cells) (Q01959 whole entry): as the sequence (Q01959 whole entry) above

Compound	effect on corrected efflux Vmax [2]	changes in levels of DAT (total lysates and biotinylated surface fraction) [3]	DAT distribution across sucrose gradient fractions (raft association) [4]	effect on Km and Vmax of AMPH-induced DA efflux (RDEV) [2]	effect on DA uptake Vmax and Km (RDEV) [7]	effect on AMPH-induced DA efflux Km, Vmax (RDEV) [8]	further results
C[C@H](N)Cc1ccccc1 [AMPH, dextroamphetamine]							[^3H]DA efflux over basal efflux ([1]; 10 µM AMPH, control cells, 5 min, 25°C): ~ 144%
CC(C)CCC[C@@H](C)[C@H]1CC[C@H]2[C@@H]3CC=C4C[C@@H](O)CC[C@]4(C)[C@H]3CC[C@]12C [cholesterol]	indistinguishable from control values	no significant changes	restored DAT association with low buoyant density fractions				
CC(C)=CCC[C@@H](C)[C@H]1CC[C@H]2[C@@H]3CC=C4C[C@@H](O)CC[C@]4(C)[C@H]3CC[C@]12C [desmosterol]	indistinguishable from control values	no significant changes	inefficient at restoring rafts				increase in cholesterol after replenishment with desmosterol [5]: ≤ 10%
NCCc1ccc(O)c(O)c1 [DA, dopamine]							IC50 of DA competing for [^3H]CFT binding, rafts vs whole cells [6]: two-fold higher
methyl-β-cyclodextrin [mβCD]		no significant changes	significant shift of DAT out of raft fractions 3–4 into denser fractions 7 and up	large reduction	enhanced uptake Vmax without altering Km	partial rescue of efflux Vmax	reduction in reverse transport (corrected efflux Vmax) ([2]; 5.0 mM mβCD vs control, 37°C): ~ 40%; effect on Vmax ratio (incorporating the uptake correction) ([8]; 2.5 mM mβCD): rescued to that of DAT WT control; AMPH-induced [^3H]DA efflux over basal levels ([1]; 2.5 mM mβCD, 10 µM AMPH): 122%; AMPH-induced [^3H]DA efflux over basal levels ([1]; 5.0 mM mβCD, 10 µM AMPH): 115%; loss in efflux function ([1]; 2.5 and 5.0 mM mβCD): ~ 20%; reduction of cholesterol content compared with untreated cells ([9]; 2.5 mM): 39%; reduction of cholesterol content compared with untreated cells ([9]; 5.0 mM): 63%
C[C@@H]1[C@H](O)[C@@H](C)/C=C/C=C/CC/C=C/C=C/C=C/C=C/C(O[C@H]2O[C@H](C)[C@@H](O)[C@H](N)[C@@H]2O)CC2O[C@](O)(CC(O)C(O)CCC(O)CC(O)CC(O)CC(=O)O[C@H]1C)CC(O)C2C(=O)O (some centres unmarked) [nystatin]	no significant change	no significant changes	significant shift of DAT out of raft fractions 3–4 into denser fractions 7 and up	no effect	did not significantly change Vmax or Km	did not affect	AMPH-induced [^3H]DA efflux over basal levels ([1]; nystatin treated cells, 10 µM AMPH): 150%; change of overall content of cholesterol ([9]; 25 µg/ml): did not change
